Source: patent publication US8921362B2, “6,7-dialkoxy quinazoline derivatives and methods of treating drug resistant and other tumors” (Natco Pharma Limited, priority 2008, dated 2014)

What was measured:
Test in all cases: KinomeScan
Format in all cases: binding
Details in all cases: read-out: % Ctrl @ 10000 nM
ABL1(T315I) = biological target: T1, ABL1(T315I) (Homo sapiens, UniProt P00519, T315I)
T1 construct: host or cells: E. coli (BL21-derived), T7 phage lysate
Outline: (§1)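 qPCR titer; phage-tagged kinase vs bead ligand; compound diluted from 40× DMSO stock; 2.5% DMSO control.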

AURKC = biological target: T2, AURKC (Homo sapiens, UniProt Q9UQB9)
T2 construct: host or cells: E. coli host derived from BL21
T2 sequence (Q9UQB9 whole entry): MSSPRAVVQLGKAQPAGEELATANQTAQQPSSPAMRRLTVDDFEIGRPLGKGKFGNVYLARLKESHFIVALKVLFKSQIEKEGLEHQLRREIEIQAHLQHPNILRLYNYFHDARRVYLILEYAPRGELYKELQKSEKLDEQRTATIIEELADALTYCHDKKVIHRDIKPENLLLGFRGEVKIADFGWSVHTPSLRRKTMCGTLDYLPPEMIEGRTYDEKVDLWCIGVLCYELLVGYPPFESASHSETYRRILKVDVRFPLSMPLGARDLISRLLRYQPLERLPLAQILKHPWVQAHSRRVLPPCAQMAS
Outline: as §1

BMPR1B = biological target: T3, BMPR1B (Homo sapiens, UniProt O00238)
T3 construct: host or cells: E. coli host derived from BL21
T3 sequence (O00238 14-502): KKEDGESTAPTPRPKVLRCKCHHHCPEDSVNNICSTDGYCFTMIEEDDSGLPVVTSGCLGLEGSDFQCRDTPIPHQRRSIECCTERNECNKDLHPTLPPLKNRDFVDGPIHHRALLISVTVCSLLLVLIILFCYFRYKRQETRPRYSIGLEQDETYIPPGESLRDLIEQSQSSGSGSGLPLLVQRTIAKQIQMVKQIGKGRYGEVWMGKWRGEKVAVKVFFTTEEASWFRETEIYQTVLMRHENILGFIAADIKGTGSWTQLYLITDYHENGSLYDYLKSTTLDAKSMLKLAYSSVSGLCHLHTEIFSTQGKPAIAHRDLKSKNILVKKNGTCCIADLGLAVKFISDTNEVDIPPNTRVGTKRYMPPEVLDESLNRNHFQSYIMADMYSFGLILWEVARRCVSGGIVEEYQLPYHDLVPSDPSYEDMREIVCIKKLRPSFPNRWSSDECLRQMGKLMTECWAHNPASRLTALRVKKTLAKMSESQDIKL
Outline: as §1

CAMKK2 = biological target: T4, CAMKK2 (Homo sapiens, UniProt Q96RR4)
T4 construct: host or cells: T7 phage in E. coli host derived from BL21
Outline: as §1

CSNK1G2 = biological target: T5, CSNK1G2 (Homo sapiens, UniProt P78368)
T5 construct: purchased Ambit Biosciences Corp (KinomeScan); host or cells: T7 phage in E. coli host derived from BL21
T5 sequence (P78368 whole entry): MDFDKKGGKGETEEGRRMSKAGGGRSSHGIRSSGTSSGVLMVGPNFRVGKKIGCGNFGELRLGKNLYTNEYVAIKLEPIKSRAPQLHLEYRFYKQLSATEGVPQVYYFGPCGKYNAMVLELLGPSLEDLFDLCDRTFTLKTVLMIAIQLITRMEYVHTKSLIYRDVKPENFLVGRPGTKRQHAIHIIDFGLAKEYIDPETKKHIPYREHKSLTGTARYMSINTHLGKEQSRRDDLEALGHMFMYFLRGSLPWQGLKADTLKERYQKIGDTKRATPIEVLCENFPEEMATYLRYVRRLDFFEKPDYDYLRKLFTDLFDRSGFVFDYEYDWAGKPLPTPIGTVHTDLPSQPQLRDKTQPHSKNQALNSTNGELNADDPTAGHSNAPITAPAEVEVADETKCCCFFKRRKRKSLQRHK
Outline: as §1

CSNK2A1 = biological target: T6, CSNK2A1 (Homo sapiens, UniProt P68400)
T6 construct: purchased Ambit Biosciences Corp (KinomeScan); host or cells: T7 phage in E. coli host derived from BL21
T6 sequence (P68400 whole entry): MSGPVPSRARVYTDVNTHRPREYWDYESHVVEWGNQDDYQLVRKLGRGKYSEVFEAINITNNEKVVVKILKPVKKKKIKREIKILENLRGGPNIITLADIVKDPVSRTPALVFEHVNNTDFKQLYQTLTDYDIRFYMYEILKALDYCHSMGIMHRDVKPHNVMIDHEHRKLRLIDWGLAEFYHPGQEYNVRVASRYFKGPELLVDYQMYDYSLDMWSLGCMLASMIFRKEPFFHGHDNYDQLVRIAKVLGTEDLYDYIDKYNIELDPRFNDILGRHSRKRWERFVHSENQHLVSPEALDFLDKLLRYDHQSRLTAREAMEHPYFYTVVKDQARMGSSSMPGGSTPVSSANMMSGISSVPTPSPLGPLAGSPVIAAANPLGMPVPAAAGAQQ
Outline: as §1

DAPK2 = biological target: T7, DAPK2 (Homo sapiens, UniProt Q9UIK4)
T7 construct: purchased Ambit Biosciences Corp (KinomeScan); host or cells: T7 phage in E. coli host derived from BL21
T7 sequence (Q9UIK4 whole entry): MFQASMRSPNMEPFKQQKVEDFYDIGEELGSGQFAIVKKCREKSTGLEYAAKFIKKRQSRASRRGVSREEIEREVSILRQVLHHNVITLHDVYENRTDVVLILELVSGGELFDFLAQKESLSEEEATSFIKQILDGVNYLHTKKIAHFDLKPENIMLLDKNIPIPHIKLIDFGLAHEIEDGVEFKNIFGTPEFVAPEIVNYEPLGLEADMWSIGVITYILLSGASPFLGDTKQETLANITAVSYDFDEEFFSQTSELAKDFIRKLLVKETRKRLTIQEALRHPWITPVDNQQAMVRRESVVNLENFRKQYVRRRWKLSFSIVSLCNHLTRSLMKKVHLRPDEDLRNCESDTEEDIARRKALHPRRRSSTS
Outline: as §1

EPHA1 = biological target: T8, EPHA1 (Homo sapiens, UniProt P21709)
T8 construct: purchased Ambit Biosciences Corp; host or cells: T7 phage in E. coli host derived from BL21
Outline: as §1

ERK4 = biological target: T9, ERK4 (Homo sapiens, UniProt P31152)
T9 construct: purchased Ambit Biosciences Corp; host or cells: T7 phage in E. coli host derived from BL21
Outline: as §1

ERK5 = biological target: T10, ERK5 (Homo sapiens, UniProt Q13164)
T10 construct: purchased Ambit Biosciences Corp; host or cells: T7 phage in E. coli host derived from BL21
Outline: as §1

FGFR3 = biological target: T11, FGFR3 (Homo sapiens, UniProt P22607)
T11 construct: host or cells: T7 phage in E. coli host derived from BL21
T11 sequence (P22607 23-806): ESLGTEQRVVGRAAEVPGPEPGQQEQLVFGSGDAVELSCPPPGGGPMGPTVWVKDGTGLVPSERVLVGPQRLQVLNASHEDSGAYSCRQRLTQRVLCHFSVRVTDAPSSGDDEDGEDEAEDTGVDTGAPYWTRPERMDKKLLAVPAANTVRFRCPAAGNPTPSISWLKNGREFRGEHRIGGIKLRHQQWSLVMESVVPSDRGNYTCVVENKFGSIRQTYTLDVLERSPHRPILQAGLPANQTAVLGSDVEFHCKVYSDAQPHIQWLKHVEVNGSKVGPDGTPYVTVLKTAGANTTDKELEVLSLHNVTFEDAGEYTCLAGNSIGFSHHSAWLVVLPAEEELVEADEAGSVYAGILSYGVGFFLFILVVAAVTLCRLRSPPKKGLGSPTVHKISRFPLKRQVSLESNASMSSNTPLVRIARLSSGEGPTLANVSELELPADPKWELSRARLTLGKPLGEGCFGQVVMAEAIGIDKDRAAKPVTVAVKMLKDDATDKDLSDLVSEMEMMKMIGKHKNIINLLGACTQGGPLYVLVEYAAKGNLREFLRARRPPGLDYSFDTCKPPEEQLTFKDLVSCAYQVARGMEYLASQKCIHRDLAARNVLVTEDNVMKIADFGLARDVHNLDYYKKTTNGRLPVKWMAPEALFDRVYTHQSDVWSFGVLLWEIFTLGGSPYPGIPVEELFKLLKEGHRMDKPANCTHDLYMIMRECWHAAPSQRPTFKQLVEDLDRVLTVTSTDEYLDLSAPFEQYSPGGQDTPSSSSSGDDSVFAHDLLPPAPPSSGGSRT
Outline: as §1

FGR = biological target: T12, FGR (Homo sapiens, UniProt P09769)
T12 construct: host or cells: T7 phage in E. coli host derived from BL21
Outline: as §1

FLT3(N8411) = biological target: T13, FLT3(N8411) (Homo sapiens, UniProt P36888, N841I)
T13 construct: host or cells: T7 phage in E. coli host derived from BL21
Outline: as §1

INSR = biological target: T14, INSR (Homo sapiens, UniProt P06213)
T14 construct: host or cells: T7 phage grown in E. coli host derived from BL21
Outline: as §1

INSRR = biological target: T15, INSRR (Homo sapiens, UniProt P14616)
T15 construct: host or cells: T7 phage grown in E. coli host derived from BL21
Outline: as §1

KIT(D816V) = biological target: T16, KIT(D816V) (Homo sapiens, UniProt P10721, D816V)
T16 construct: host or cells: T7 phage grown in E. coli host derived from BL21
Outline: as §1

LYN = biological target: T17, LYN (Homo sapiens, UniProt P07948)
T17 construct: host or cells: E. coli host derived from the BL21 strain, infected with T7 phage
Outline: as §1

MAP4K3 = biological target: T18, MAP4K3 (Homo sapiens, UniProt Q8IVH8)
T18 construct: host or cells: E. coli host derived from the BL21 strain, infected with T7 phage
T18 sequence (Q8IVH8 whole entry): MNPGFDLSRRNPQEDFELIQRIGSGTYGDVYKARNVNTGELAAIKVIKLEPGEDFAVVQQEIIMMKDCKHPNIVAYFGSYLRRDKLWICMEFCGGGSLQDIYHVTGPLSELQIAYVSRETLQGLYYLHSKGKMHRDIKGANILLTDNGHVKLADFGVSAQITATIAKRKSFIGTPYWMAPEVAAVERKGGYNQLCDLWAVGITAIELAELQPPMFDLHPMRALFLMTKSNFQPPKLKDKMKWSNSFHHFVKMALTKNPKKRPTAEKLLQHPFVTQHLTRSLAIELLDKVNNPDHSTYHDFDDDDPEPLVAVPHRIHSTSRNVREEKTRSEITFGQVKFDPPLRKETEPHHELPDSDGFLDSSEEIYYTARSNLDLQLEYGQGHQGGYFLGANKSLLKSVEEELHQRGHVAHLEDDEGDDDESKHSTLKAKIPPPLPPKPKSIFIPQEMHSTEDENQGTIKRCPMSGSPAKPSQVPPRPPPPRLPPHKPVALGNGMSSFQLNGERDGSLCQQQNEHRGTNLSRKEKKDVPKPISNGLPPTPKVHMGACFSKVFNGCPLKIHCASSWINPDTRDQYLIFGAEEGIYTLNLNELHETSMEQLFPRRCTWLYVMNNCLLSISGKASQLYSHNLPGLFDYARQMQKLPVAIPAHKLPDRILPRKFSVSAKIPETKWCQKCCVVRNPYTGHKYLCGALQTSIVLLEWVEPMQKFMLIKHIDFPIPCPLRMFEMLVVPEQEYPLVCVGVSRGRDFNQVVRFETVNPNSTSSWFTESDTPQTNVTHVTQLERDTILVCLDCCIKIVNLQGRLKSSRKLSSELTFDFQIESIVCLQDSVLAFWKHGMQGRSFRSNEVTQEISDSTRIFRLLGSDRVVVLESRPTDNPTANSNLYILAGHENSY
Outline: as §1

MEK6 = biological target: T19, MEK6 (Homo sapiens, UniProt P52564)
T19 construct: host or cells: E. coli host derived from the BL21 strain, infected with T7 phage
Outline: as §1

MINK = biological target: T20, MINK (Homo sapiens, UniProt Q8N4C8)
T20 construct: host or cells: E. coli host derived from the BL21 strain, infected with T7 phage
Outline: as §1

MYO3B = biological target: T21, MYO3B (Homo sapiens, UniProt Q8WXR4)
T21 construct: host or cells: T7 phage grown in E. coli host derived from BL21
Outline: as §1

PAK6 = biological target: T22, PAK6 (Homo sapiens, UniProt Q9NQU5)
T22 construct: host or cells: E. coli host derived from BL21, infected with T7 phage
Outline: as §1

PIP5K2B = biological target: T23, PIP5K2B (Homo sapiens, UniProt P78356)
T23 construct: host or cells: T7 phage in E. coli host derived from BL21
Outline: as §1

PLK4 = biological target: T24, PLK4 (Homo sapiens, UniProt O00444)
T24 construct: host or cells: T7 phage in E. coli host derived from BL21
Outline: as §1

PRKD1 = biological target: T25, PRKD1 (Homo sapiens, UniProt Q15139)
T25 construct: host or cells: T7 phage in E. coli host derived from BL21
Outline: as §1

PRKG2 = biological target: T26, PRKG2 (Homo sapiens, UniProt Q13237)
T26 construct: host or cells: T7 phage in E. coli host derived from BL21
Outline: as §1

RIOK3 = biological target: T27, RIOK3 (Homo sapiens, UniProt O14730)
T27 construct: host or cells: E. coli host derived from BL21, T7 phage display
T27 sequence (O14730 whole entry): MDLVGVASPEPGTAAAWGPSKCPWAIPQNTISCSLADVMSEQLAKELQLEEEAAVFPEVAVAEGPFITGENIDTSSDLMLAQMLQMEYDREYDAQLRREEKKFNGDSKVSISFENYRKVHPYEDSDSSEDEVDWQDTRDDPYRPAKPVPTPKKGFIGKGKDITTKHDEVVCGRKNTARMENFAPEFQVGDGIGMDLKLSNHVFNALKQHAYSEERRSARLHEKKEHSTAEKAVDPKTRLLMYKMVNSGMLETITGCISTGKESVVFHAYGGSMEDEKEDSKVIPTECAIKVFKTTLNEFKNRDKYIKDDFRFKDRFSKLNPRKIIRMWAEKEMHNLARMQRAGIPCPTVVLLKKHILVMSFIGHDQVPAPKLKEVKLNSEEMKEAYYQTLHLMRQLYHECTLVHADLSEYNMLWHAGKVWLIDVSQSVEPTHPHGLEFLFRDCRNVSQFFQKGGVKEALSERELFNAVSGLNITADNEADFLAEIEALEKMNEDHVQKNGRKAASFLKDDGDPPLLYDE
Outline: as §1

[1] = biological target: T28, RPS6KA1(Kin.Dom.-1-N-terminal) (Homo sapiens, UniProt Q15418)
T28 construct: RPS6KA1(Kin.Dom.-1-N-terminal); host or cells: E. coli host derived from BL21, T7 phage display
T28 sequence (Q15418 62-321 limits assumed): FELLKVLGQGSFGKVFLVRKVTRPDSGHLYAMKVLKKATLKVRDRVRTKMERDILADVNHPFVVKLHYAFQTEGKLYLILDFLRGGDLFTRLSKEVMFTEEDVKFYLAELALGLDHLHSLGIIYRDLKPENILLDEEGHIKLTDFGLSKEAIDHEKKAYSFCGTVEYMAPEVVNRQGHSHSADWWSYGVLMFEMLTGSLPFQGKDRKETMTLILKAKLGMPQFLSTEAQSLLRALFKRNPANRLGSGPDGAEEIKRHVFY
Outline: as §1

SLK = biological target: T29, SLK (Homo sapiens, UniProt Q9H2G2)
T29 construct: host or cells: T7 phage grown in E. coli (BL21-derived)
Outline: as §1

SRPK3 = biological target: T30, SRPK3 (Homo sapiens, UniProt Q9UPE1)
T30 construct: host or cells: T7 phage grown in E. coli (BL21-derived)
T30 sequence (Q9UPE1 whole entry): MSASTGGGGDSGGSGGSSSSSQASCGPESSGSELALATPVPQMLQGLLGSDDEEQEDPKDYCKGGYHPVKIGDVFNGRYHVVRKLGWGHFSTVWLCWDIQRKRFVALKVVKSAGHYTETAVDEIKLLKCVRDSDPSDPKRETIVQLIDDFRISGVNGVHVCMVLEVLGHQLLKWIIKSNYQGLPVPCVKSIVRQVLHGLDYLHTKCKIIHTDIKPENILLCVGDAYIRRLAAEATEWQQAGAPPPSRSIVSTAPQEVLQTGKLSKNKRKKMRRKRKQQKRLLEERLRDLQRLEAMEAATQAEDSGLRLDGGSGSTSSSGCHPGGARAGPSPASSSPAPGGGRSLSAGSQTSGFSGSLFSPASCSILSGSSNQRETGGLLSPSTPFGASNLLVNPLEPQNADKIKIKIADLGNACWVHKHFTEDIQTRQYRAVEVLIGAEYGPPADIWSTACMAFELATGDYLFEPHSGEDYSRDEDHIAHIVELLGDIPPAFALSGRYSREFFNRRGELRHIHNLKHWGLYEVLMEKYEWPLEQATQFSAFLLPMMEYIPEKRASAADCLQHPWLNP
Outline: as §1

TRKA = biological target: T31, TRKA (Homo sapiens, UniProt P04629)
T31 construct: host or cells: E. coli host derived from BL21, T7 phage
Outline: as §1

YANK2 = biological target: T32, YANK2 (Homo sapiens, UniProt Q9NY57)
T32 construct: host or cells: E. coli host derived from BL21, T7 phage
Outline: as §1

ZAP70 = biological target: T33, ZAP70 (Homo sapiens, UniProt P43403)
T33 construct: host or cells: T7 phage grown in an E. coli host derived from BL21
Outline: as §1

SMILES: C#Cc1cccc(Nc2ncnc3cc(OC)c(OCCCN4CCOCC4)cc23)c1 [NRC-2694, N-(3-ethynylphenyl)-7-methoxy-6-[3-(4-morpholinyl)propoxy]-4-quinazolinamine]
- remaining binding at 10 µM (ABL1(T315I)): 35%
- remaining binding at 10 µM (AURKC): 47%
- remaining binding at 10 µM (BMPR1B): 78%
- remaining binding at 10 µM (CAMKK2): 60%
- remaining binding at 10 µM (CSNK1G2): 76%
- remaining binding at 10 µM (CSNK2A1): 56%
- remaining binding at 10 µM (DAPK2): 61%
- remaining binding at 10 µM (EPHA1): 55%
- remaining binding at 10 µM (ERK4): 3.7%
- remaining binding at 10 µM (ERK5): 90%
- remaining binding at 10 µM (FGFR3): 100%
- remaining binding at 10 µM (FGR): 19%
- remaining binding at 10 µM (FLT3(N8411)): 16%
- remaining binding at 10 µM (INSR): 90%
- remaining binding at 10 µM (INSRR): 79%
- remaining binding at 10 µM (KIT(D816V)): 17%
- remaining binding at 10 µM (LYN): 13%
- remaining binding at 10 µM (MAP4K3): 52%
- remaining binding at 10 µM (MEK6): 75%
- remaining binding at 10 µM (MINK): 16%
- remaining binding at 10 µM (MYO3B): 100%
- remaining binding at 10 µM (PAK6): 70%
- remaining binding at 10 µM (PIP5K2B): 49%
- remaining binding at 10 µM (PLK4): 70%
- remaining binding at 10 µM (PRKD1): 9.6%
- remaining binding at 10 µM (PRKG2): 40%
- remaining binding at 10 µM (RIOK3): 37%
- remaining binding at 10 µM [1]: 100%
- remaining binding at 10 µM (SLK): 0.3%
- remaining binding at 10 µM (SRPK3): 38%
- remaining binding at 10 µM (TRKA): 100%
- remaining binding at 10 µM (YANK2): 68%
- remaining binding at 10 µM (ZAP70): 100%
